What was measured:
[1] = Binding affinity to Mushroom Tyrosinase assessed as inhibition constant
[2] = target: T1, Mushroom tyrosinase (Agaricus bisporus, UniProt O42713+Q00024+C7FF04+C7FF05); experiment: Inhibition of mushroom Tyrosinase; format: protein assay
[3] = target: T1, Mushroom tyrosinase; experiment: Inhibition of mushroom Tyrosinase using L-DOPA as substrate assessed as inhibition constant by Michaelis-Menten analysis; format: protein assay
[4] = Inhibition of Bacterial Tyrosinase; design: species or system Bacteria
[5] = target: T2, Tyrosinase (Homo sapiens, UniProt P14679); experiment: Binding affinity to human Tyrosinase assessed as inhibition constant
T2 sequence (P14679 whole entry): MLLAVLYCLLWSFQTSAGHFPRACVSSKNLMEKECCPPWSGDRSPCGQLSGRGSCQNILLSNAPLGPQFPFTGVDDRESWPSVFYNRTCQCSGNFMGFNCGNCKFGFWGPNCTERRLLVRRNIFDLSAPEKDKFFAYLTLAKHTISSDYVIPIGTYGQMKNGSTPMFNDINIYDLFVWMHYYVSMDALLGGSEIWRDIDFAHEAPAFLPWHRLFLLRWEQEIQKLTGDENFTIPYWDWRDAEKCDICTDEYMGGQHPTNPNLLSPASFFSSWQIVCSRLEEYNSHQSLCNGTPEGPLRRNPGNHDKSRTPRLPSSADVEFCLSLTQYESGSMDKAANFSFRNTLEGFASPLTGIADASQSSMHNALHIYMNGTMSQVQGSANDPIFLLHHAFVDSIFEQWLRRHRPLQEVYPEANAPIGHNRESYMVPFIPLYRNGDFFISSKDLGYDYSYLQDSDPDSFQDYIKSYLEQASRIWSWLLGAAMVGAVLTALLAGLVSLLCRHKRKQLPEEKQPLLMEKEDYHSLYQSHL

[6] = target: T1, Mushroom tyrosinase; experiment: Binding affinity to mushroom Tyrosinase using L-DOPA as substrate assessed as inhibition constant by Michaelis-Menten analysis; format: protein assay
[7] = target: T1, Mushroom tyrosinase; experiment: Inhibition of mushroom Tyrosinase by using L-DOPA as substrate by spectrophotometric assay; format: protein assay
[8] = Biniding affinity to bacterial Tyrosinase assessed as inhibition constant; design: species or system Bacteria
[9] = target: T2, Tyrosinase; experiment: Binding affinity to human Tyrosinase using L-DOPA as substrate assessed as inhibition constant by Michaelis-Menten analysis
[10] = target: T2, Tyrosinase; experiment: Inhibition of human tyrosinase using L-DOPA as substrate by spectrophotometer analysis
[11] = Inhibition of human Tyrosine kinase
[12] = Binding affinity to bacterial Tyrosinase assessed as inhibition constant; design: species or system Bacteria
[13] = system: OC[C@H]1O[C@@H](Oc2ccc(O)cc2)[C@H](O)[C@@H](O)[C@@H]1O; experiment: (§1) Binding affinity to mushroom tyrosinase assessed as catalytic constant using L-DOPA as substrate by Michaelis-Menten analysis; format: protein assay; conditions: Agaricus bisporus
[14] = system: O=C1/C(=C/c2ccc(O)cc2)Oc2cc(O)ccc21; experiment: as §1; format: protein assay; conditions: Agaricus bisporus
[15] = system: Oc1ccc(OC2CCCCO2)cc1; experiment: as §1; format: protein assay; conditions: Agaricus bisporus
[16] = system: Oc1ccc(/C=C/c2cc(O)cc(O)c2)cc1; experiment: as §1; format: protein assay; conditions: Agaricus bisporus
[17] = system: OC[C@H]1O[C@@H](Oc2ccc(O)cc2)[C@H](O)[C@@H](O)[C@@H]1O; experiment: (§2) Binding affinity to mushroom tyrosinase […]; format: protein assay; conditions: Agaricus bisporus
[18] = system: O=C(O)Cc1ccc(O)cc1; experiment: as §2; format: protein assay; conditions: Agaricus bisporus
[19] = system: NCCc1ccc(O)c(O)c1; experiment: as §2; format: protein assay; conditions: Agaricus bisporus
[20] = system: NCCc1ccc(O)cc1; experiment: as §2; format: protein assay; conditions: Agaricus bisporus
[21] = system: CC(C)NCC(O)c1ccc(O)c(O)c1; experiment: as §2; format: protein assay; conditions: Agaricus bisporus
[22] = system: Cc1ccc(O)c(O)c1; experiment: as §2; format: protein assay; conditions: Agaricus bisporus
[23] = system: N[C@H](Cc1ccc(O)cc1)C(=O)O; experiment: as §2; format: protein assay; conditions: Agaricus bisporus
[24] = system: CC(C)(C)c1ccc(O)c(O)c1; experiment: as §2; format: protein assay; conditions: Agaricus bisporus
[25] = system: Oc1ccc(OC2CCCCO2)cc1; experiment: as §2; format: protein assay; conditions: Agaricus bisporus
[26] = system: N[C@@H](Cc1ccc(O)c(O)c1)C(=O)O; experiment: as §2; format: protein assay; conditions: Agaricus bisporus
[27] = system: Oc1ccccc1; experiment: as §2; format: protein assay; conditions: Agaricus bisporus
[28] = system: COc1ccc(O)cc1; experiment: as §2; format: protein assay; conditions: Agaricus bisporus
[29] = system: Oc1ccccc1O; experiment: as §2; format: protein assay; conditions: Agaricus bisporus
[30] = system: N[C@@H](Cc1ccc(O)cc1)C(=O)O; experiment: as §2; format: protein assay; conditions: Agaricus bisporus
[31] = system: O=c1c(O)c(-c2ccc(O)c(O)c2)oc2cc(O)cc(O)c12; experiment: as §2; format: protein assay; conditions: Agaricus bisporus
[32] = system: O=C(O)Cc1ccc(O)cc1; experiment: (§3) Binding affinity to mushroom tyrosinase assessed as catalytic constant by Michaelis-Menten analysis; format: protein assay; conditions: Agaricus bisporus
[33] = system: NCCc1ccc(O)cc1; experiment: as §3; format: protein assay; conditions: Agaricus bisporus
[34] = system: N[C@H](Cc1ccc(O)cc1)C(=O)O; experiment: as §3; format: protein assay; conditions: Agaricus bisporus
[35] = system: Oc1ccccc1; experiment: as §3; format: protein assay; conditions: Agaricus bisporus
[36] = system: COc1ccc(O)cc1; experiment: as §3; format: protein assay; conditions: Agaricus bisporus
[37] = system: O=C(/C=C/c1ccc(O)c(O)c1)O[C@H](Cc1ccc(O)c(O)c1)C(=O)O; experiment: (§4) Binding affinity to mushroom tyrosinase assessed as catalytic constant; format: protein assay; conditions: Agaricus bisporus
[38] = system: N[C@H](Cc1ccc(O)c(O)c1)C(=O)O; experiment: as §4; format: protein assay; conditions: Agaricus bisporus
[39] = system: NCCc1ccc(O)c(O)c1; experiment: as §4; format: protein assay; conditions: Agaricus bisporus
[40] = system: CC(C)NCC(O)c1ccc(O)c(O)c1; experiment: as §4; format: protein assay; conditions: Agaricus bisporus
[41] = system: Cc1ccc(O)c(O)c1; experiment: as §4; format: protein assay; conditions: Agaricus bisporus
[42] = system: CC(C)(C)c1ccc(O)c(O)c1; experiment: as §4; format: protein assay; conditions: Agaricus bisporus
[43] = system: O=C(O)/C=C/c1ccc(O)c(O)c1; experiment: as §4; format: protein assay; conditions: Agaricus bisporus
[44] = system: N[C@@H](Cc1ccc(O)c(O)c1)C(=O)O; experiment: as §4; format: protein assay; conditions: Agaricus bisporus
[45] = system: O=C(O)Cc1ccc(O)c(O)c1; experiment: as §4; format: protein assay; conditions: Agaricus bisporus
[46] = system: Oc1ccccc1O; experiment: as §4; format: protein assay; conditions: Agaricus bisporus
[47] = system: N[C@@H](Cc1ccc(O)cc1)C(=O)O; experiment: as §4; format: protein assay; conditions: Agaricus bisporus
[48] = system: O=c1c(O)c(-c2ccc(O)c(O)c2)oc2cc(O)cc(O)c12; experiment: as §4; format: protein assay; conditions: Agaricus bisporus

Chain of Mushroom tyrosinase (Agaricus bisporus) (C7FF05 whole entry, looked up): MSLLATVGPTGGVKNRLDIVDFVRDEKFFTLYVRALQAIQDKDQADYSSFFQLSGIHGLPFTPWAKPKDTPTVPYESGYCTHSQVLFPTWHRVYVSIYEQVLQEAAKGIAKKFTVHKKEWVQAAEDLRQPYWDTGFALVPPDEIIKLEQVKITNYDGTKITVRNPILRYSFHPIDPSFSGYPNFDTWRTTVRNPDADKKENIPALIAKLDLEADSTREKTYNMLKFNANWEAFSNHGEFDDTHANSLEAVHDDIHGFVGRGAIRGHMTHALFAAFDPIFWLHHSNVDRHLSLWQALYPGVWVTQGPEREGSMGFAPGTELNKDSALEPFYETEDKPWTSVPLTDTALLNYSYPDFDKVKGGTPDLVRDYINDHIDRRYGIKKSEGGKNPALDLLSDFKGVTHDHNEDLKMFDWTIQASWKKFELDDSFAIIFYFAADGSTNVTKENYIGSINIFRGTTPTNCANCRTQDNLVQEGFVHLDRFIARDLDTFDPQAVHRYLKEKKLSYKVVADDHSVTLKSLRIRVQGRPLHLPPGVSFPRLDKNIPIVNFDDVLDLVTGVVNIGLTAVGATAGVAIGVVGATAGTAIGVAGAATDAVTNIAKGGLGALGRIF
Chain of Mushroom tyrosinase (Agaricus bisporus) (C7FF04 whole entry, looked up): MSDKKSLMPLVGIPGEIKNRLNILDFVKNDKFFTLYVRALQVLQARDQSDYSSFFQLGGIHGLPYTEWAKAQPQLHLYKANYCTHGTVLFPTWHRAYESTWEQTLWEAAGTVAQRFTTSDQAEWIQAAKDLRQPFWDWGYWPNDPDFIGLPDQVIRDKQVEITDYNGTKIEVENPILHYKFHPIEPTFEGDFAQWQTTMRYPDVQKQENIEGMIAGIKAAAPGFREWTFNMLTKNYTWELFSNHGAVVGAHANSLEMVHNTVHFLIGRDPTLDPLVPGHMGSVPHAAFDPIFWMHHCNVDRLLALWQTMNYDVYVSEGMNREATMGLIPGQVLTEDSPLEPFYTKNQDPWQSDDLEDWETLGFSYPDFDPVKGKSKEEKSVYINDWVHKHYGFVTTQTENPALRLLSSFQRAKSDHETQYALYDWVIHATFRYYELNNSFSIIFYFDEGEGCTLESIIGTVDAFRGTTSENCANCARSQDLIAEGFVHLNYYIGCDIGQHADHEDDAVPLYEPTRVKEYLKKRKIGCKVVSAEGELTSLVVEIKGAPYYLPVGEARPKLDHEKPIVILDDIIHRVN
Chain of Mushroom tyrosinase (Agaricus bisporus) (Q00024 whole entry, looked up): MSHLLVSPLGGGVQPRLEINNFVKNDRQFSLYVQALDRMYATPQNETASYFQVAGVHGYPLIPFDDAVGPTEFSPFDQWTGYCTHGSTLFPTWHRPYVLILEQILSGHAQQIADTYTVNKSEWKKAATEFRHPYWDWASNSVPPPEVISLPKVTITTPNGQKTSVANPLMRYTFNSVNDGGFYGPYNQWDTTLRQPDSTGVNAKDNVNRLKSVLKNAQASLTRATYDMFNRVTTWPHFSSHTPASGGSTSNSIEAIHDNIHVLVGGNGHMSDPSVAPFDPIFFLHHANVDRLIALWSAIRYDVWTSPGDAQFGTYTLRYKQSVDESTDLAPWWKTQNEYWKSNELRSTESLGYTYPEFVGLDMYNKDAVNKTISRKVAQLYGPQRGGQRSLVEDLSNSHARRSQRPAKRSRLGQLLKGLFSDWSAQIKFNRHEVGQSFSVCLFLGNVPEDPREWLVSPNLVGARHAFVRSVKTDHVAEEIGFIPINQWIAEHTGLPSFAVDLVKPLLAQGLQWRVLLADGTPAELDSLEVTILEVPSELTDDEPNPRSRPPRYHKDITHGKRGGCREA
Chain of Mushroom tyrosinase (Agaricus bisporus) (O42713 whole entry, looked up): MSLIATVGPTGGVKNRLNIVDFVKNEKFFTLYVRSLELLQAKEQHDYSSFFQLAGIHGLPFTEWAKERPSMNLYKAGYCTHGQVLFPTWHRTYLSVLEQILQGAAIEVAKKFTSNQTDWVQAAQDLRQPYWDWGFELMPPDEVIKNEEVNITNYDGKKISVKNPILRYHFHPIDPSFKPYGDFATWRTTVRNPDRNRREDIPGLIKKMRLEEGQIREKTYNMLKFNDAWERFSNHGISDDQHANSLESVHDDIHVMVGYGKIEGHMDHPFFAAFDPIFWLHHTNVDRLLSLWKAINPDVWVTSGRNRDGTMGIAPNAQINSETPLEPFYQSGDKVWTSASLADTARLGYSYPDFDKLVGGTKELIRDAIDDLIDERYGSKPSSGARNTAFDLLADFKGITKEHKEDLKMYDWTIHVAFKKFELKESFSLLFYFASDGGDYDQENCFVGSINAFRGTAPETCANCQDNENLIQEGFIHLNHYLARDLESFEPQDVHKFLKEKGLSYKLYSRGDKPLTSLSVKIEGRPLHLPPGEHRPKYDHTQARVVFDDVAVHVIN

## NCCn1ccc(=O)c(O)c1
[1]
  Ki: 14 µM

## O=c1cc(CSC2CCCCC2)occ1O
[2]
  IC50: 0.087 µM

## On1ccccc1=S
[3]
  IC50: 6.1 µM

## NC(=S)N/N=C/c1cc(=O)c(O)co1
[2]
  IC50: 10 µM
[4]
  IC50: 1.6 µM
[5]
  Ki: 260 µM

## Cc1c(C)c2c(c(C)c1O)CCC(C)(C(=O)OCc1cc(=O)c(O)co1)O2 (centres undefined)
[2]
  IC50: 5.4 µM

## O=C(/C=C/c1ccc2c(c1)OCO2)OCc1cc(=O)c(O)co1
[2]
  IC50: 1.4 µM

## COc1ccc(C(=O)OCc2cc(=O)c(O)co2)cc1
[2]
  IC50: 2 µM

## Oc1cccnc1O
[6]
  Ki: 22 µM

## O=C(N[C@@H](Cc1ccccc1)C(=O)OCc1cc(=O)c(O)c[nH]1)OCc1ccccc1
[2]
  IC50: 9 µM

## O=C1/C(=C/c2ccc(=O)n(O)c2)Oc2cccc(O)c21
[6]
  Ki: 1.02 µM

## O=C1/C(=C/c2ccc(=O)n(O)c2)Oc2cc(O)cc(O)c21
[6]
  Ki: 1.2 µM

## O=C1/C(=C/c2ccc(=O)n(O)c2)Oc2cc(O)ccc21
[3]
  IC50: 1.5 µM
[6]
  Ki: 0.35 µM

## O=c1cc(CSc2nnc(-c3ccccc3)n2NCc2ccc(O)cc2O)occ1O
[7]
  IC50: 1.4 µM

## CCCCCCCCn1cc(O)c(=O)cc1COC(=O)[C@@H](N)Cc1ccccc1
[2]
  IC50: 4 µM

## CCOC(=O)/C=C/c1cc(=O)c(O)co1
[2]
  IC50: 36 µM

## CCCCCCCCn1cc(O)c(=O)cc1/C=N/OCC
[2]
  IC50: 8 µM

## O=c1ccc(CO)cn1O
[8]
  Ki: 4.1 µM

## N[C@@H](Cc1ccc(=O)n(O)c1)C(=O)O
[8]
  Ki: 39 µM

## O=Cc1ccc(OCc2cc(=O)c(O)co2)cc1F
[2]
  IC50: 5.3 µM

## CCCCCCCCn1cc(O)c(=O)cc1C=O
[2]
  IC50: 7.8 µM

## O=c1cc(CSCCCCSCc2cc(=O)c(O)co2)occ1O
[2]
  IC50: 3 µM

## O=c1oc2ccc(O)cc2cc1O
[3]
  IC50: 10 µM

## CCCCCCn1cc(O)c(=O)cc1/C=C/c1cc(O)cc(O)c1
[2]
  IC50: 16 µM

## O=c1cc(CSc2nc3ccccc3c(=O)n2CCc2ccccn2)occ1O
[7]
  IC50: 0.46 µM

## O=C(CCNC(=O)OCc1cc(=O)c(O)co1)OCc1cc(=O)c(O)co1
[2]
  IC50: 7 µM

## Nc1cc2ccc(O)cc2oc1=O
[3]
  IC50: 53 µM

## CCn1ccc(=O)c(O)c1
[1]
  Ki: 4 µM

## COc1ccccc1/C=C/C=N/Nc1nnc(SCc2cc(=O)c(O)co2)n1N
[7]
  IC50: 7.5 µM

## O=c1cc(CSc2nc3ccccc3s2)occ1O
[7]
  IC50: > 3 µM

## CC(C)[C@@H](NC(=O)[C@@H](N)Cn1ccc(=O)c(O)c1)C(=O)O
[2]
  IC50: 10.3 µM

## NC(=S)N/N=C\c1ccc(=O)n(O)c1
[8]
  Ki: 2 µM
[3]
  IC50: 0.56 µM
[6]
  Ki: 0.56 µM
[9]
  Ki: 47 µM

## CN(C)c1ccc(-c2nnc(SCc3cc(=O)c(O)co3)nc2-c2ccc(N(C)C)cc2)cc1
[7]
  IC50: 0.34 µM

## O=c1cc(CSc2nnc(-c3ccc(F)cc3)o2)occ1O
[7]
  IC50: 5.3 µM

## CC(C)c1ccccc(=O)c1O [ALPHA-THUJAPLICIN]
[6]
  Ki: 9.5 µM
[10]
  IC50: > 1000 µM

## Cc1c(O)c(=O)ccn1C [DEFERIPRONE]
[2]
  IC50: 30 µM

## CC(C)c1ccc(O)c(=O)cc1 [GAMMA-THUJAPLICIN]
[6]
  Ki: 0.07 µM

## CC(C)c1cccc(=O)c(O)c1 [HINOKITIOL]
[6]
  Ki: 0.09 µM

## O=c1cc(CO)occ1O [KOJIC ACID]
[11]
  IC50: 31 µM

## N[C@@H](Cn1ccc(=O)c(O)c1)C(=O)O [L-MIMOSINE]
[12]
  Ki: 54 µM
[1]
  Ki: 8 µM

## O=c1cccccc1O [TROPOLONE]
[6]
  Ki: 8 µM

## Mushroom tyrosinase (Agaricus bisporus) (from UniProt O42713+Q00024+C7FF04+C7FF05)
[13]
  kcat: 3.8 s⁻¹
[14]
  kcat: 2.3 s⁻¹
[15]
  kcat: 1.95 s⁻¹
[16]
  kcat: 69 s⁻¹
[17]
  Km: 3000 µM
[18]
  Km: 1910 µM
[19]
  Km: 720 µM
[20]
  Km: 0.51 µM
[21]
  Km: 7100 µM
[22]
  Km: 100 µM
[23]
  Km: 2.5 µM
[24]
  Km: 2.8 µM
[25]
  Km: 0.033 µM
[26]
  Km: 800 µM
[27]
  Km: 0.7 µM
[28]
  Km: 80 µM
[29]
  Km: 0.16 µM
[30]
  Km: 0.21 µM
[31]
  Km: 0.12 µM
[32]
  kcat: 44 s⁻¹
[33]
  kcat: 26 s⁻¹
[34]
  kcat: 8.7 s⁻¹
[35]
  kcat: 13 s⁻¹
[36]
  kcat: 184 s⁻¹
[37]
  kcat: 68 s⁻¹
[38]
  kcat: 108 s⁻¹
[39]
  kcat: 475 s⁻¹
[40]
  kcat: 29 s⁻¹
[41]
  kcat: 842 s⁻¹
[42]
  kcat: 642 s⁻¹
[43]
  kcat: 403 s⁻¹
[44]
  kcat: 107 s⁻¹
[45]
  kcat: 632 s⁻¹
[46]
  kcat: 874 s⁻¹
[47]
  kcat: 7.9 s⁻¹
[48]
  kcat: 6.2 s⁻¹
